Results taken from PMC6243185 (The Korean Journal of Parasitology, 2018).

Biological target: T1, AcCP (rAcCP) (Acanthamoeba castellanii, UniProt A1YJR6)
T1 sequence (A1YJR6 44-330): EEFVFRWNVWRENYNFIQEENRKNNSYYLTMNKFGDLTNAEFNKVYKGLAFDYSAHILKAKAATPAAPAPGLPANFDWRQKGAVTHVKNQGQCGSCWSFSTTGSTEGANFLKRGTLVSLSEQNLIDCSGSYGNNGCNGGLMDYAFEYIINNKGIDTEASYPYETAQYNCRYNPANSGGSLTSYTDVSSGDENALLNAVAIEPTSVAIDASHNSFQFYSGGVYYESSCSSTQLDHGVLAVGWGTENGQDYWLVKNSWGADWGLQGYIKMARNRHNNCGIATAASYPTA
Assay: inhibition of fluorogenic substrate hydrolysis
Format: biochemical
Details: fully processed rAcCP; data not shown; covalent

CC(C)C[C@H](NC(=O)[C@H]1O[C@@H]1C(=O)O)C(=O)NCCCCN=C(N)N [E-64, trans-epoxy-succinyl-L-leucylamido(4-guanidino)-butane]
inhibition of fluorogenic substrate hydrolysis; active site titration: The fully processed rAcCP was effectively inhibited by a cysteine protease inhibitor, E-64 (data not shown)
